Values quoted from earlier work as cited in patent US20020035131A1, “Regimen and kit for amelioration of premature ejaculation” (Pentech Pharmaceuticals, Inc., priority 1999, published 2002).

System: patients treated for premature ejaculation
Conditions: cited from earlier work

For `CN[C@H]1CC[C@@H](c2ccc(Cl)c(Cl)c2)c2ccccc21` [sertraline], the “patients who managed to ejaculate during sexual intercourse” value (25 mg sertraline/day, study group of 46) is given as “all patients”, the “men unable to ejaculate after prolonged sexual intercourse” value (50 mg sertraline/day, 4/46) is given as 9% and the “patients unable to ejaculate after prolonged sexual intercourse” value (100 mg sertraline/day, 10/46) is given as 22%.
